Measured values as given in patent publication US5639439A, “Gallium dimercaptosuccinate as a novel tumor imaging agent” (Institute of Nuclear Energy Research, Taiwan, priority 1994, dated 1997).

Experiments:
glioblastoma (GBM) = assay: Animal biodistribution in glioblastoma (GBM) tumor-bearing athymic nude mice; format: in vivo; conditions: 2 hr. postinjection, tail vein
Procedure: The six-week old athymic nude mice were obtained from the Experiment Animal Center, Tri-service General Hospital, Taipei, Taiwan. The viable cultured cells, glioblastoma (GBM), were implanted in the upper back leg by intradermal injection. The tissue biodistribution of gallium-67 dimercaptosuccinate was determined following injection (0.15 to 0.2 ml) into tail vein of ketamine anesthetized in tumor-bearing mice. The reanesthetized animals were sacrificed immediately thereafter by decapitation at given time intervals. The organs of interest were subsequently excised, blotted with tissue paper, weighed and the radioactivity was measured. The tissue distribution of gallium-67 dimercaptosuccinate and gallium-67 chloride in tumor-bearing mice are shown in FIG. 1 at 2 hr. postinjection, as much as 7.8% and 1.1% were in GBM and gallium-67 chloride respectively.

tumor = assay: Gamma camera imaging of tumor-bearing mice; format: in vivo, athymic nude mice; conditions: gamma images at 5 min and 15 min
Procedure: FIG. 2 is a photograph showing the position of tumors in the body of athymic nude mice imaged […] after injection with gallium-67 dimercaptosuccinate.
Imaging was performed using the Elscint gamma camera with medium energy collimator, and a SIMIS-IV nuclear medicine computer for data processing.

Compound	tissue distribution in GBM (glioblastoma (GBM)) [%]	in vivo stability (tumor)
[Cl][Ga]([Cl])[Cl] [gallium-67 chloride, reference compound]	1.1	
gallium-67 dimercaptosuccinate	7.8	stable in vivo
